Laboratory results: patent US12714657B2, “Magnolia extract containing compositions” (MARY KAY INC., priority 2007, dated 2026)

Columns and labels:
Human melanocytes = test: Melanin production assay in melanocytes; format: cell-based; conditions: 6 days
Procedure: Materials and Methods: Human melanocytes from a moderately pigmented donor were purchased from Cascade Biologics (Portland, Oregon). Human dermal fibroblasts were purchased from Cambrex (Rockland, ME). In order to determine the optimal concentrations of the test materials for the whitening experiment, these materials were first examined in a proliferation assay with human dermal fibroblasts. The highest non-interfering concentration was determined for each test material and further 5-fold dilutions were made for use in melanocytes cultures. The following assay was used to the effects of the materials on melanin production. Melanocytes were seeded in the fully-supplemented 254 medium (Cascade) in 96 well plates and test materials were added 24 h later. Cells were grown for 6 days with one growth medium change. At the end of the experiment, cells were lysed with the Cellytic Mammalian Cell Lysis/Extraction Reagent (Sigma, St. Louis, MO) and melanin was solubilized in 2N NaOH. Melanin content was determined spectrophotometrically at 405 nm and standardized to total protein content from the same cultures, using Bradford reagent (Sigma, St. Louis, MO). Kojic acid was used as positive control. Cell cultures were monitored on a Nikon Eclipse inverted microscope.

Mushroom Tyrosinase = test: Tyrosinase activity, modified Pomerantz method; format: biochemical; conditions: H20 = 100.0
Procedure: Tyrosinase activity was measured by the modified Pomerantz method (Biophys Res Commun, 1964). Mushroom Tyrosinase (Sigma #3212816630) stock enzyme was 5 U/well (25 U/ml). The substrate (I-DOPA, Fisher Scientific, Pittsburgh, PA) stock solution was 20 mM. Working solution was prepared in PBS for each assay. The reaction mixture consisted of 50 μl 20 mM I-DOPA and 10 μl undiluted test sample. Reaction was initiated by adding tyrosinase. Assays were preformed in 96 well flat-bottom microtiter plates (Fisher #0720087) and read at 490 nm after 5, 10, and 20 min.

SMILES	activity at 200 µM (Human melanocytes; Melanocyte, 144 h, 200 μM, H20 = 100%, read-out: Melanin Inhibition in Cells) [%]	Tyrosinase activity, % of water control (Mushroom Tyrosinase; read at 490 nm after 5 min)	Tyrosinase activity, % of water control (Mushroom Tyrosinase; read at 490 nm after 10 min)	Tyrosinase activity, % of water control (Mushroom Tyrosinase; read at 490 nm after 20 min)	Melanin content (% of water control) (Human melanocytes; Dilution Factor 1/25-1/125, H20 = 100%)
O=c1cc(CO)occ1O [Kojic acid]	83	39.0	35.5	33.1	
O=C1O[C@H]([C@@H](O)CO)C(O)=C1O[C@H]1O[C@H](CO)[C@@H](O)[C@H](O)[C@H]1O [Ascorbyl Glucoside, Ascorbyl glucoside]		33.8	30.6	30.1	75-65.5%
